Data from patent US12577196B2 (priority 2019, dated 2026).
≈ marks a conversion by molar mass, not a printed value. Like-named read-outs stand apart in the source and are kept apart here.

Assays:
[1] = tested on: Staphylococcus aureus ATCC 6538; experiment: MIC determination by broth micro dilution (Example 5); format: cell-based; details: ATCC6538; Staphylococcus aureus ATCC 6538, 4.5×10^3 Cfu/Ml
Description: Minimum Inhibitory Concentration (MIC) Determination by Broth Micro Dilution
(§1) Standardisation of Inoculum
The suspensions were mixed. […] The inoculums were 30 mixed.
(§2) Inoculation and Incubation
100 μl of the initial concentration of the sample was added to the first well.
Staphylococcus aureus ATCC 6538 4.5×10^3 Cfu/Ml

[2] = tested on: Salmonella enterica serovar Typhimurium ATCC 14028
in vitro = details: human
[3] = tested on: Candida albicans ATCC 10231; format: cell-based; details: ATCC10231
Description: (§3) MIC Determination by Broth Micro Dilution
as §1
(§4) The inoculums were mixed.
as §2

[4] = format: cell-based; details: Table 12, strain not named
Description: as §3, §1, §4, §2

[5] = tested on: Candida albicans NCTC 885-653; format: cell-based; set-up: unit not given beside the values
Description: as §3, §1, §4, §2

Row | SMILES | MIC [1] | MIC ([2]; Salmonella enterica) | MIC [3] | other results
1 | Cc1ccc(C(C)C)c(OC(=O)C[N+](C)(C)CCCCCCCCCC[N+](C)(C)CCCCCCCCCC[N+](C)(C)CC(=O)Oc2cc(C(C)C)ccc2C)c1.[Br-].[Cl-].[Cl-] [Comparative compound 1, reference compound] | 1.95 µg/mL | – | – | –
2 | Cc1ccc(C(C)C)cc1OC(=O)C[N+](C)(C)CCCCCCCCCC[N+](C)(C)CC(=O)Oc1cc(C(C)C)ccc1C [Formula IV, N1,N10-bis(2-(5-isopropyl-2-methylphenoxy)−2-oxoethyl)-N1,N1,N10,N10-tetramethyldecane-1,10-diaminium dichloride] | – | 3.9 µg/mL | 3.9 to 7.8 µg/mL | MIC ([2]; Salmonella enterica serovar Typhimurium ATCC 14028 (log 4 conditions)): 3.9; CC50 (in vitro): > 120 µg/mL
3 | Cc1ccc(C(C)C)c(OC(=O)C[N+](C)(C)CCCCCCCCCC[N+](C)(C)CC(=O)Oc2cc(C)ccc2C(C)C)c1 [Formula V, N1,N10-bis(2-(2-isopropyl-5-methylphenoxy)−2-oxoethyl)-N1,N1,N10,N10-tetramethyldecane-1,10-diaminium dichloride] | – | – | 3.9 to 7.8 µg/mL | MIC [4]: 0.98 µg/mL; MIC (Table 11, head not given) [5]: 3.9-7.8
4 | Cc1ccc(C(C)C)c(OC(=O)C[N+](C)(C)CCCCCCCCCC[N+](C)(C)CCCCCCCCCC[N+](C)(C)CC(=O)Oc2cc(C)ccc2C(C)C)c1 [Formula VII, N1-(2-(2-isopropyl-5-methylphenoxy)−2-oxoethyl)-N10-(10-((2-(2-isopropyl-5-methylphenoxy)-2-oxoethyl)dimethylammonio)decyl)-N1,N1,N10,N10-tetramethyldecane-1,10-diaminium bromide dichloride] | 0.98 µg/mL | – | – | –
5 | CN[C@H](CC(C)C)C(=O)N[C@H]1C(=O)N[C@@H](CC(N)=O)C(=O)N[C@H]2C(=O)N[C@H]3C(=O)N[C@H](C(=O)N[C@H](C(=O)O)c4cc(O)cc(O)c4-c4cc3ccc4O)[C@H](O)c3ccc(c(Cl)c3)Oc3cc2cc(c3O[C@@H]2O[C@H](CO)[C@@H](O)[C@H](O)[C@H]2O[C@H]2C[C@](C)(N)[C@H](O)[C@H](C)O2)Oc2ccc(cc2Cl)[C@H]1O [Vancomycin, reference compound] | – | 78 µg/mL (≈ 53.8 µM) | – | –
